Measurements as given in patent publication US8865653B2, “Method of treatment for immunogenic treatment resistant cancer” (Institut Gustave Roussy, priority 2010, dated 2014).

Assays:
MCA205 fibrosarcoma = assay: Chemotherapy and Dendrophilin treatment of established MCA205 tumors; format: in vivo, mice; conditions: doxorubicin intratumorally
Method: WT or loss-of-function mice were injected in the right flank with 1×10^6 of EL4 or CT26 or MCA205 cells. Mice were then randomly assigned into treatment groups of 4-6 mice each. […] Two and/or four days after chemo treatment, mice were treated with Dendrophilin or LPS (2 μg in 100 μl NaCl per mouse i.v or i.t). […] Tumor growths were monitored every 3-4 days using a caliper.

MCA 205 tumors = assay: qRT-PCR of tumor gene expression after Doxorubicin; format: in vivo, mice; conditions: 2 days after treatment; Mavs, Irf3, Irf1 and Tnf unchanged
Method: 0.8 Million of MCA 205 has been subcutaneously implanted to C57Bl6 mice.
Tumor samples were freshly collected, briefly washed in RPMI1640 media (GIBCO). Tissue samples were cut to a maximum thickness in any one dimension of 0.5 cm, placed in 5 volumes of RNAlater® (SIGMA ALDRICH). Samples can be stored at room temperature if processed for RNA extraction on the same day or stored at 4° C. for less than 1 month. RNA extraction from each tumor (up to 30 mg/sample) was performed using RNeasy Mini Kit (QIAGEN) following the instructions.
Add 20 μL1 of Master mix (dN6 (3 ng/μl), dNTP (1 mM), Buffer (1×), RNAsin (40 U) Superscript® III RT (200 U)) into the processed mRNA sample. Mix was incubated at 50° C. for 1 h and then inactivated at 75° C. for 15 min.
cDNA of each sample was diluted at 1:3 with DNase free water. For each sample, 4 μl of primer and probe TAQMAN (2×), 10 μl of assay mix (20×), 5 μl diluted cDNA were added. qRT-PCR was performed (45 cycles with standard PCR program using StepOnePlus™ system (Applied Biosystems). PPIA was used as endogenous control gene to normalize gene expression for data analysis.

[1] = system: tumor infiltrating lymphocytes (TILs) of MCA205 tumors; assay: Tumor dissection and flow cytometry of TILs (IFN-γ, IL-17); format: in vivo, mice
Method: Tumor burdens were carefully removed, cut into small pieces with scissors within digesting buffer (400 U/ml Collagenase IV and 150 U/ml DNase I in RPMI1640) and incubated for 30 min at 37° C. Single cell suspension was obtained by grinding the digested tissue and filtering through 70 μM cell strainer. […] LIVE/DEAD Fixable Dead Cell Stain Kit was used to distinguish live and dead cells. For intracellular staining, freshly isolated cells were treated with, 50 ng/ml PMA, 1 μg/ml ionomycin and Golgi-stop (BD Pharmingen), 4 hrs, 37° C. in RPMI containing 2% mouse serum (Janvier, France). Cells were then washed with PBS and stained with anti-IFN-γ (PE-cy7) and anti-IL-17 (PE) using BD Cytofix/Cytoperm™ Kit following the instructions.

U2OS cells = assay: US Drug library screen: CRT-GFP, HMGB1-GFP, quinacrine; conditions: 1 μM, 4 h / 24 h / 16 h
CT26 colon cancer = assay: Anthracycline chemotherapy of established CT26 colon cancer; format: in vivo, mice; conditions: single intratumoral injection
Method: 0.8 million MCA205 or CT26 or TS/A tumor cells were inoculated subcutaneously near the thigh into C57Bl/6 (H-2^b) or BALB/c (H-2^d) mice. Anthracyclines-based chemotherapy was performed in MCA205 and CT26 models by intratumoral injecting DX (2 mM, […]) when tumors reached the size 25-40 mm^2. Radiotherapy was performed by local X-ray irradiation (10 Gy, RT250, Phillips) at the unshielded tumor area when TS/A tumor reached the size 40-60 mm^2.

MCA205 tumors = assay: Gene expression assays in tumors (TaqMan RT-PCR) 8 days after DX; format: in vivo, mice; conditions: 8 days post-treatment, quantitative RT-PCR
Method: Whole RNA was extracted using RNeasy Mini Kit, QIAGEN from pieces of tumor homogenates. 5 μg of RNA from each sample were reverse-transcribed using Quantitect Reverse Transcription Kit (QIAGEN). Gene expression assays were performed with TaqMan® 96 well Plates customized to test cytokines, chemokines as well as transcription factors using StepOnePlus™ Real-Time PCR System. PPIA was chosen as the endogenous control to perform normalization between different samples.

COc1cccc2c1C(=O)c1c(O)c3c(c(O)c1C2=O)C[C@@](O)(C(=O)CO)C[C@@H]3O[C@H]1C[C@H](N)[C@H](O)[C@H](C)O1 [DX, doxorubicin]
antitumor effects of chemotherapy alone (MCA205 fibrosarcoma): only mild effects | genes involved in viral recognition and anti-viral immune responses, RT-PCR (MCA 205 tumors): specifically up-regulated | increase in the proportions of IFN-γ and IL-17 producing TILs ([1]; DX compared with PBS, flow cytometry, day 8): 3 fold | IFN-γ production by CD8+ and CD4+ TILs and IL-17 production by γδ TILs ([1]; MCA205, post-chemotherapy): substantially enhanced | rank in screen for exposing CRT and emitting HMGB1 and ATP (U2OS cells): most potent in exposing CRT, and emitting HMGB1 and ATP | tumor growth (CT26 colon cancer): significantly retarded tumor growth | Eomes, Tbx21 (T-bet) and IFN-γ expression increase, DX versus PBS-treated tumors (MCA205 tumors): 4-5 fold
